pIC50: −log10 of the molar value.
How the values were obtained:
[1] = biological target: B-Raf (V600E) (SEQ. ID NO: 4) kinase (Homo sapiens (Human), UniProt P15056, V600E); assay: Biochemical Assay for B-Raf (V600E) (2); settings: Table J, BRAF V600E, biochemical assay (2); read-out: BRAF VE (2)
Experimental: Biochemical Assay for B-Raf (V600E) (2)
Activity of B-Raf (V600E) (SEQ. ID NO: 4) kinase was determined spectroscopically using a coupled pyruvate kinase/lactate dehydrogenase assay that continuously monitors the ATP hydrolysis-dependent oxidation of NADH (e.g., Schindler et al., Science, 2000, 289, 1938-1942). Assays were conducted in 384-well plates (25 μL final volume) using 0.5 nM B-Raf (deCode), 1.5 units pyruvate kinase, 2.1 units lactate dehydrogenase, 1 mM phosphoenol pyruvate, 0.7 mM NADH, 100 nM MEK (SignalChem), and 1 mM ATP in assay buffer (100 mM Tris, pH 7.5, 15 mM MgCl2, 0.5 mM DTT, 0.1% octyl-glucoside, 0.002% (w/v) BSA, and 0.002% Triton X-100). Inhibition of B-Raf (V600E) was measured by adding serial diluted test compound (final assay concentration of 1% DMSO). A decrease in absorption at 340 nm was monitored hourly for 4 h at 30° C. on a multi-mode microplate reader (BioTek). The reaction rate was calculated using the 3 to 4 h time frame. The reaction rate at each concentration of compound was converted to percent inhibition using controls (i.e., reaction with no test compound and reaction with a known inhibitor) and IC50 values were calculated by fitting a four-parameter sigmoidal curve to the data using Prism (GraphPad software).

[2] = biological target: B-Raf kinase (SEQ. ID NO: 2) (Homo sapiens (Human), UniProt P15056); assay: Biochemical Assay for B-Raf (2); settings: Table J, biochemical assay (2); read-out: BRAF (2)
Experimental: Biochemical Assay for B-Raf (2)
(§1) Activity of B-Raf kinase (SEQ. ID NO: 2) was determined spectroscopically using a coupled pyruvate kinase/lactate dehydrogenase assay that continuously monitors the ATP hydrolysis-dependent oxidation of NADH (e.g., Schindler et al., Science, 2000, 289, 1938-1942). Assays were conducted in 384-well plates (25 μL final volume) using 2 nM B-Raf (Sigma), 1.5 units pyruvate kinase, 2.1 units lactate dehydrogenase, 1 mM phosphoenol pyruvate, 0.7 mM NADH, 50 nM MEK (SignalChem), and 1 mM ATP in assay buffer (100 mM Tris, pH 7.5, 15 mM MgCl2, 0.5 mM DTT, 0.1% octyl-glucoside, 0.002% (w/v) BSA, and 0.002% Triton X-100). Inhibition of B-Raf was measured by adding serial diluted test compound (final assay concentration of 1% DMSO). A decrease in absorption at 340 nm was monitored hourly for 4 h at 30° C. on a multi-mode microplate reader (BioTek). The reaction rate was calculated using the 2 to 3 h time frame. The reaction rate at each concentration of compound was converted to percent inhibition using controls (i.e., reaction with no test compound and reaction with a known inhibitor) and IC50 values were calculated by fitting a four-parameter sigmoidal curve to the data using Prism (GraphPad software).

[3] = biological target: C-Raf kinase (SEQ. ID NO: 3) (Homo sapiens (Human), UniProt P04049, Y340D/Y341D); assay: Biochemical Assay for C-Raf (2); settings: Table J, biochemical assay (2); read-out: CRAF (2)
Experimental: Biochemical Assay for C-Raf (2)
as §1, with “of C-Raf” for “of B-Raf”, “NO: 3)” for “NO: 2)”, “using 3.84” for “using 2”, “nM C-Raf (Eurofins),” for “nM B-Raf (Sigma),”

WM3928 cells = assay: WM3928 Cell Proliferation Assay (2); format: cell-based
Experimental: WM3928 Cell Proliferation Assay (2)
WM3928 cells (#WM3928-01-0001) are obtained from Rockland Immunochemicals Inc (Gilbertsville, PA). Briefly, cells were grown in MCDB 153 medium (Sigma, #M7403, St. Louis, MO) supplemented with 20% Leibovitz's L-15 (ThermoFisher #11415-064, Waltham, MA), 2% heat inactivated fetal bovine serum (ThermoFisher, #A3840001, Waltham, MA), 5 μg/mL Insulin (Bovine Pancreas) (Sigma, #10516, St. Louis, MO), 1.68 mM Calcium Chloride (Sigma, #C-34006, St. Louis, MO) and 1% Penicillin/Streptomycin/L-Glutamine (ThermoFisher #10378016, Waltham, MA) at 37° C., 5% CO2, and 95% humidity. Cells are expanded until reaching 70-95% confluency at which point they are sub-cultured or harvested for assay use. Using the Beckman Coulter Echo 650, a serial dilution of test compound is dispensed into a 384-well black clear bottom plate in triplicate. Seven hundred fifty cells are added per well in 50 μL complete growth medium in the 384-well plate. Plates are incubated for 67-72 hours at 37° C., 5% CO2, and 95% humidity. At the end of the incubation, 10 μL of a 440 μM solution of resazurin (Sigma, #199303, St. Louis, MO) in PBS is added to each well of the plate and plates are incubated for an additional 3-6 hours at 37° C., 5% CO2, and 95% humidity. Plates are read on a Synergy2 or equivalent reader (Biotek, Winooski VT) using an excitation of 540 nm and an emission of 600 nm. Data is analyzed using Prism software (GraphPad, San Diego, CA) to calculate IC50 values.

C-Raf kinase (SEQ. ID NO: 3), sequence (P04049 307-648 Y340D/Y341D): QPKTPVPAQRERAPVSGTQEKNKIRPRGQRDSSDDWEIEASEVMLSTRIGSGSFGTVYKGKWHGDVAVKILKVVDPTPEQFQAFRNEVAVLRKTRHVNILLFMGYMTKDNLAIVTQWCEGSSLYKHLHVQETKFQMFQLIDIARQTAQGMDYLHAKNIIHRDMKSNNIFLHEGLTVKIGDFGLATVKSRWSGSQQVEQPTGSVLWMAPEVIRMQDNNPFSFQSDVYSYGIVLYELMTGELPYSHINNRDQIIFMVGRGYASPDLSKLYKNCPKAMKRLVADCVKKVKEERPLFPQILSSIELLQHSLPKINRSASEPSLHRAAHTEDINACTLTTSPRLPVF
B-Raf kinase (SEQ. ID NO: 2), sequence (P15056 416-766): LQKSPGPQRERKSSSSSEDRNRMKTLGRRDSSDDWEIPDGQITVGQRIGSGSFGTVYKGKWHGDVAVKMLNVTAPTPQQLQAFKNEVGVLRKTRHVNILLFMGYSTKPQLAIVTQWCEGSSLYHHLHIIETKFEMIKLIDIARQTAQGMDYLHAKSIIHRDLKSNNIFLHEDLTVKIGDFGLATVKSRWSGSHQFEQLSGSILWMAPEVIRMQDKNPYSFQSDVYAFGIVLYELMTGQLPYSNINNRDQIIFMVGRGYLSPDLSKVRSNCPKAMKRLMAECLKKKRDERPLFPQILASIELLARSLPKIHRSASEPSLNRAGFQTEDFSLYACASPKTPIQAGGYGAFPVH
B-Raf (V600E) (SEQ. ID NO: 4) kinase, sequence (P15056 416-766 V600E): as the sequence (P15056 416-766) above, with V185E counted along it

SMILES | pIC50 [1] | pIC50 [2] | pIC50 [3] | pIC50 (WM3928 cells)
CNC(=O)c1cc(-c2cncc(-c3cc(NC(=O)c4ccnc(C(C)(F)F)c4)ccc3C)c2)ncn1 [Example 439] | ≥ 7.00 | ≥ 7.00 | ≥ 7.00 | 6.30 to 7.00
CNC(=O)c1cc(-c2cncc(-c3cc(NC(=O)c4ccnc(C(C)(F)F)c4)ccc3C)c2)ccn1 [Example 440] | ≥ 7.00 | ≥ 7.00 | ≥ 7.00 | ≥ 7.00
CNC(=O)c1cc(-c2cc(-c3cc(NC(=O)c4ccnc(C(C)(F)F)c4)ccc3C)ccn2)ccn1 [Example 441] | ≥ 7.00 | ≥ 7.00 | ≥ 7.00 | ≥ 7.00
CNC(=O)c1cc(-c2cncc(-c3cc(NC(=O)c4ccnc(C(C)(C)C#N)c4)ccc3C)c2)ccn1 [Example 442] | ≥ 7.00 | ≥ 7.00 | ≥ 7.00 | ≥ 7.00
CNC(=O)c1cc(-c2cc(-c3cc(NC(=O)c4ccnc(C(C)C)c4)ccc3C)ccn2)ccn1 [Example 443] | ≥ 7.00 | ≥ 7.00 | ≥ 7.00 | ≥ 7.00
CNC(=O)c1cc(-c2cc(-c3cc(NC(=O)c4ccnc(C(C)(C)F)c4)cnc3C)ccn2)ccn1 [Example 444] | ≥ 7.00 | 6.30 to 7.00 | ≥ 7.00 | 6.30 to 7.00
CNC(=O)c1cc(-c2cncc(-c3cc(NC(=O)c4ccnc(C(C)C)c4)ccc3C)c2)ccn1 [Example 445] | ≥ 7.00 | ≥ 7.00 | ≥ 7.00 | ≥ 7.00
CNC(=O)c1cc(-c2cncc(-c3cc(NC(=O)c4ccnc(C(C)C)c4)ccc3C)c2)ncn1 [Example 446] | ≥ 7.00 | ≥ 7.00 | ≥ 7.00 | ≥ 7.00
Cc1ccc(NC(=O)c2ccnc(C(C)(C)F)c2)cc1-c1ccnc(-c2ccnc(C#N)c2)c1 [Example 447] | 6.30 to 7.00 | 6.30 to 7.00 | ≥ 7.00 | 6.00 to 6.30
Cc1ccc(NC(=O)c2ccnc(C(C)(C)F)c2)cc1-c1ccnc(-c2ccnc(C(=O)NCCO)c2)c1 [Example 448] | ≥ 7.00 | 6.30 to 7.00 | ≥ 7.00 | ≥ 7.00
CNC(=O)c1cc(-c2cc(-c3cc(NC(=O)c4ccnc(C(C)(C)F)c4)ccc3C)cc(OCCO)n2)ccn1 [Example 449] | ≥ 7.00 | 6.30 to 7.00 | ≥ 7.00 | ≥ 7.00
Cc1ccc(NC(=O)c2ccnc(C(C)(C)F)c2)cc1-c1ccnc(-c2ccnc(C(=O)NC3CN(C)C3)c2)c1 [Example 450] | ≥ 7.00 | 6.30 to 7.00 | 6.30 to 7.00 | 6.30 to 7.00
Cc1ccc(NC(=O)c2ccnc(C(C)(C)F)c2)cc1-c1ccnc(-c2ccnc(C(=O)NCC#N)c2)c1 [Example 451] | ≥ 7.00 | ≥ 7.00 | ≥ 7.00 | ≥ 7.00
CNC(=N)c1cc(-c2cc(-c3cc(NC(=O)c4ccnc(C(C)(C)F)c4)ccc3C)ccn2)ccn1 [Example 452] | ≥ 7.00 | ≥ 7.00 | ≥ 7.00 | 6.30 to 7.00
Cc1ccc(NC(=O)c2ccnc(C(C)(C)F)c2)cc1-c1ccnc(-c2ccnc(C(=O)NCCN(C)C)c2)c1 [Example 453] | ≥ 7.00 | ≥ 7.00 | ≥ 7.00 | 6.30 to 7.00
Cc1ncc(NC(=O)c2ccnc(C(C)(C)F)c2)cc1-c1ccnc(-c2ccnc(NC(=O)C3CC3)c2)c1 [Example 454] | ≥ 7.00 | ≥ 7.00 | ≥ 7.00 | ≥ 7.00
Cc1ccc(NC(=O)c2ccnc(C(C)(C)F)c2)cc1-c1ccnc(-c2ccnc(NC(=O)C3CC3)c2)c1 [Example 455] | ≥ 7.00 | ≥ 7.00 | ≥ 7.00 | ≥ 7.00
Cc1ccc(NC(=O)c2ccnc(C(C)(C)C#N)c2)cc1-c1ccnc(-c2ccnc(NC(=O)C3CC3)c2)c1 [Example 456] | ≥ 7.00 | ≥ 7.00 | ≥ 7.00 | ≥ 7.00

From US12319655B2, “RAF kinase inhibitors and methods of use thereof” (Deciphera Pharmaceuticals, LLC, priority 2021, dated 2025)
